ChEMBL document CHEMBL1201862, “PubChem BioAssay data set” (2004)
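Following 48 hours of exposure in 96-well plates, responses at five concentrations were used to interpolate endpoints linearly. The concentration for 50% growth inhibition is given as GI50.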 Active and inactive are the calls of the source. No stated cut-off is given here; in the data, active = GI50 up to about 1.1 µM and inactive = higher.

How the values were obtained:
Assay in all cases: DTP human tumour cell line panel, 48 h
786-0 = system: 786-0
A549 = system: A549
ACHN = system: ACHN
CCRF-CEM = system: CCRF-CEM
HOP-92 = system: HOP-92
Hs-578T = system: Hs-578T
KM12 = system: KM12
MDA-MB-231 = system: MDA-MB-231
MOLT-4 = system: MOLT-4
Malme-3M = system: Malme-3M
OVCAR-3 = system: OVCAR-3
OVCAR-5 = system: OVCAR-5
SNB-19 = system: SNB-19
SNB-75 = system: SNB-75
SR = system: SR
T47D = system: T47D
TK-10 = system: TK-10
UACC-62 = system: UACC-62
HCT-15 = system: HCT-15
NCI-H522 = system: NCI-H522

Row | SMILES | GI50 (786-0) | GI50 (A549) | GI50 (ACHN) | GI50 (CCRF-CEM) | GI50 (HOP-92) | GI50 (Hs-578T) | GI50 (KM12) | GI50 (MDA-MB-231) | GI50 (MOLT-4) | GI50 (Malme-3M) | GI50 (OVCAR-3) | GI50 (OVCAR-5) | GI50 (SNB-19) | GI50 (SNB-75) | GI50 (SR) | GI50 (T47D) | GI50 (TK-10) | GI50 (UACC-62) | GI50 (HCT-15) | GI50 (NCI-H522)
1 | CC(=O)OC[C@@H](OC(C)=O)[C@@H](OC(C)=O)[C@H]1OC[C@@H]2C[C@H]([C@H]1OC(C)=O)N(Cc1ccccc1)O2 | > 100 µM (inactive) | > 100 µM (inactive) | > 100 µM (inactive) | > 100 µM (inactive) | > 100 µM (inactive) | > 100 µM (inactive) | > 100 µM (inactive) | > 100 µM (inactive) | > 100 µM (inactive) | > 100 µM (inactive) | > 100 µM (inactive) | > 100 µM (inactive) | > 100 µM (inactive) | > 100 µM (inactive) | > 100 µM (inactive) | > 100 µM (inactive) | > 100 µM (inactive) | > 100 µM (inactive) |  | 
2 | C/C(=N\NC(=S)NNC(=S)N(C)c1ccccc1)c1ccccn1 | 1.3 µM (inactive) | 1.11 µM (active) | 0.628 µM (active) | 0.399 µM (active) | 2.52 µM (inactive) | 26 µM (inactive) | 4.21 µM (inactive) | 6.22 µM (inactive) | 0.43 µM (active) | 1.66 µM (inactive) | 0.544 µM (active) | 24 µM (inactive) | 2.7 µM (inactive) | 6.76 µM (inactive) |  | 2.96 µM (inactive) | 2.86 µM (inactive) |  | 1.16 µM | 
3 | N#Cc1sc2c(c1OC(=O)c1ccco1)c(=O)n(-c1ccccc1)c(=S)n2-c1ccccc1 | 31.1 µM (inactive) | 35.9 µM (inactive) |  | > 10 µM (inactive) |  | 57.4 µM (inactive) | 30.3 µM (inactive) | 26.5 µM (inactive) | 13.8 µM (inactive) | 22.2 µM (inactive) | 24.8 µM (inactive) |  | 36.4 µM (inactive) | 18.8 µM (inactive) | > 10 µM (inactive) | 21.1 µM (inactive) | 49.8 µM (inactive) | 15.3 µM (inactive) | 20 µM | 27.4 µM (inactive)
4 | COc1ccc(N2C(=O)/C(=C/c3ccc(N(CCC#N)CCC#N)cc3)N=C2c2ccccc2)cc1 | > 100 µM (inactive) | > 100 µM (inactive) | > 100 µM (inactive) |  | > 100 µM (inactive) | > 100 µM (inactive) | > 100 µM (inactive) | > 100 µM (inactive) | > 100 µM (inactive) | > 100 µM (inactive) | > 100 µM (inactive) | > 100 µM (inactive) | > 100 µM (inactive) | > 100 µM (inactive) | > 100 µM (inactive) | > 100 µM (inactive) | > 100 µM (inactive) | > 100 µM (inactive) | > 100 µM | 
5 | CN1C(=O)C23CCCC2CC1(c1ccccc1)S3 (configuration not stated) | > 100 µM (inactive) | > 100 µM (inactive) | > 100 µM (inactive) |  | 41 µM (inactive) | 78.9 µM (inactive) | > 100 µM (inactive) | 90.4 µM (inactive) | > 100 µM (inactive) | > 100 µM (inactive) | > 100 µM (inactive) | > 100 µM (inactive) | > 100 µM (inactive) |  | > 100 µM (inactive) | 54.6 µM (inactive) | > 100 µM (inactive) | > 100 µM (inactive) | > 100 µM | 91.2 µM (inactive)
6 | C/C(=N\c1cccc(Cl)c1)c1ccncc1 | > 100 µM (inactive) | > 100 µM (inactive) | > 100 µM (inactive) | > 100 µM (inactive) | > 100 µM (inactive) | > 100 µM (inactive) | > 100 µM (inactive) | > 100 µM (inactive) | > 100 µM (inactive) | > 100 µM (inactive) | > 100 µM (inactive) | > 100 µM (inactive) | > 100 µM (inactive) | > 100 µM (inactive) |  | > 100 µM (inactive) | > 100 µM (inactive) | 28.3 µM (inactive) | > 100 µM | > 100 µM (inactive)
